Laboratory results from article PMC11945486, “TAS1R2/TAS1R3 Single-Nucleotide Polymorphisms Affect Sweet Taste Receptor Activation by Sweeteners: The SWEET Project” (Nutrients, 2025).
No end group written: not given here.

T1: human TAS1R2-P21L/TAS1R3-WT (Homo sapiens, UniProt Q7RTX0+Q8TE23, P21L)
T1 construct: expressed in transfected cells; host or cells: HEK293T-Gα16gust44
T1 sequence (Q8TE23 20-839 P21L): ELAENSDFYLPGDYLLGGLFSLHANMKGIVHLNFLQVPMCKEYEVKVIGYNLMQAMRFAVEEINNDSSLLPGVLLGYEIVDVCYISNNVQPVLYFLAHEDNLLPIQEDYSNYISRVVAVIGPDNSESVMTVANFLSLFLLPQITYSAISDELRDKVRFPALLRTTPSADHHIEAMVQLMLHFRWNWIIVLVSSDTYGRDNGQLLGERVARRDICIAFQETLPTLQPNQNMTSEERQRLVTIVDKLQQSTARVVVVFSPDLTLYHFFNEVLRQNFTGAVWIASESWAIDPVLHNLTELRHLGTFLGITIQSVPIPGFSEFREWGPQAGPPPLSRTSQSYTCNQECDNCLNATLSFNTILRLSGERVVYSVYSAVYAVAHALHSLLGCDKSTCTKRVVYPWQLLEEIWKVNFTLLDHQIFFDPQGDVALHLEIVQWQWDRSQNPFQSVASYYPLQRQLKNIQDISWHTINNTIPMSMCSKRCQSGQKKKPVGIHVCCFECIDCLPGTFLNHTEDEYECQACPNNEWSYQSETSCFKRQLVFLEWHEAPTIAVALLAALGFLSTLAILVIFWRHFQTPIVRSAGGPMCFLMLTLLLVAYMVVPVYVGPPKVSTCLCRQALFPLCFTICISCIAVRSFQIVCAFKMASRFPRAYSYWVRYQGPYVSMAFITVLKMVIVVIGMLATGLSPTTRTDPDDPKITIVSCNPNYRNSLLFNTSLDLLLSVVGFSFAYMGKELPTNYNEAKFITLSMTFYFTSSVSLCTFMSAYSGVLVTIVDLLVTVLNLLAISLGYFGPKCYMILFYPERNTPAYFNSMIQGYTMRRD
T1 sequence (Q7RTX0 21-852): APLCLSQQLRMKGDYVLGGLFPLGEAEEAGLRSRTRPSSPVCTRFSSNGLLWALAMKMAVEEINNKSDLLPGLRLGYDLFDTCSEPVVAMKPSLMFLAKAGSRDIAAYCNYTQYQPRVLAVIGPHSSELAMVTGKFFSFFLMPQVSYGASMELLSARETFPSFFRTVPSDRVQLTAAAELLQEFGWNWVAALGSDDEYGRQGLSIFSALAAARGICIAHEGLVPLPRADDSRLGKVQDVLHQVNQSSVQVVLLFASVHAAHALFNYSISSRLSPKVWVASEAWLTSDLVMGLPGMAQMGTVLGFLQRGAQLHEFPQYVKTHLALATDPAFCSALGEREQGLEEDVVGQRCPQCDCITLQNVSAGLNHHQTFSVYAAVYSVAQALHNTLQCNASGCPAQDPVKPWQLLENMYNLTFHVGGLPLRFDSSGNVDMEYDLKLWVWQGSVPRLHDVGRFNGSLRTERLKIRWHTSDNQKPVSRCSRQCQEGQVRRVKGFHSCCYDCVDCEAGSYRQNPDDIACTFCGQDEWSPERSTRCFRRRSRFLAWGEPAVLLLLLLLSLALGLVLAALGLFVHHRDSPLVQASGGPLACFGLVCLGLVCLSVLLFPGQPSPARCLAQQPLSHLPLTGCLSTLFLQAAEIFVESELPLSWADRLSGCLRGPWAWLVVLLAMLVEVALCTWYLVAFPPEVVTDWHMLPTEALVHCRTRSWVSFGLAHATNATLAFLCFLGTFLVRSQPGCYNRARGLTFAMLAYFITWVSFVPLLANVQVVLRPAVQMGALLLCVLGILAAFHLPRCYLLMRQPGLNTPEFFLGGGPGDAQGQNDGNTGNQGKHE

B1: thaumatin (protein)
chain: ATFEIVNRCSYTVWAAASKGDAALDAGGRQLNSGESWTINVEPGTKGGKIWARTDCYFDDSGSGICKTGDCGGLLRCKRFGRPPTTLAEFSLNQYGKDYIDISNIKGFNVPMDFSPTTRGCRGVRCAADIVGQCPAKLKAPGGGCNDACTVFQTSEYCCTTGKCGPTEYSRFFKRLCPDAFSYVLDKPTTVTCPGSSNYRVTFCPTA
modifications: Eight disulfides
notes: sweet-tasting plant protein, E957

Biological target: T1, human TAS1R2-P21L/TAS1R3-WT
Experiment: Calcium mobilisation assay, TAS1R2 variant P21L with TAS1R3-WT
Type: cell-based
Details: for Max ΔF/F0: maximal signal amplitude
Source text: The coding sequences for TAS1R2 and TAS1R3 were commercially synthesised, and the human codon was optimised for expression in human cells. The coding sequences of human TAS1R2 and TAS1R3 were subcloned and inserted into the mammalian expression vectors pcDNA6/myc-HisA and pcDNA4/myc-HisA (Invitrogen; Thermo Fisher Scientific; Illkirch, France) between the EcoRI and NotI restriction sites, generating the plasmids pcDNA6-TAS1R2 and pcDNA4-TAS1R3, respectively. To increase protein expression in mammalian cells, an upstream start codon was used, which was a sequence called MAX, corresponding to the QBI SP163 element also described in pcDNA4-HisMax (Invitrogen; Thermo Fisher Scientific; Illkirch, France). To measure the expression level of the receptor by immunohistochemistry, we used the FLAG sequence ([…]) in the C-terminal position, which encodes the FLAG tag epitope. SNP variants of TAS1R2 and TAS1R3 were constructed based on […], respectively, using site-directed mutagenesis (Genewiz; Leipzig, Germany).
The HEK293T cells were kindly provided by Jay P. Slack (Givaudan Flavors Corporation; Cincinnati, OH, USA). HEK293T cells stably transfected with Gα16gust44 [43, 67] were seeded in poly-D-lysine-coated clear-bottom black 96-well plates (0.35 × 10^5 cells/well) in high-glucose DMEM supplemented with 2 mM GlutaMAX, 10% dialysed foetal bovine serum with penicillin/streptomycin and G418 (400 μg/mL) at 37 °C and 6.3% CO2 in a humidified atmosphere as previously reported. […] As a negative control, HEK293T cells were mock-transfected with the empty expression vector. After a further 24 h of incubation, the HEK293T cells were washed with C1 buffer (130 mM NaCl, 5 mM KCl, 10 mM HEPES pH 7.4 and 2 mM CaCl2). The 96-well plates containing the cells were then stimulated with sweet-tasting compounds. […] Different concentration ranges were tested depending on the sweet compound injected. The Ca^2+ changes were expressed as fractional changes in fluorescent light intensity: ΔF/F = (F − F0)/F0, where F was the fluorescent light intensity at each point, and F0 was the value of emitted fluorescent light prior to stimulus application. To calculate dose–response relationships, the changes in fluorescence upon stimulus application were averaged, mock-subtracted and baseline-corrected. The dose–response data obtained were adjusted using a 4-parameter logistic equation. The half-maximal effective concentrations (EC50 values) and maximal signal amplitudes were calculated using SigmaPlot software (version 15.0) (Systat Software; San Jose, CA, USA).
For in vitro calcium mobilisation assay performed on hTAS1R2-SNPs, hTAS1R3-SNPs and mTAS1R3-I60T, 6 to 7 concentrations were tested for each sweet compound, plus buffer alone. All concentration–receptor combinations were measured in duplicate, and each experiment was repeated at least 4 times (8 wells/concentration). Results were expressed for each concentration as ΔF/F mean ± SEM and represented as dose–response curves.

| Molecule | EC50 [µM] | R1 = Variant EC50/WT EC50 | Max ΔF/F0 |
| --- | --- | --- | --- |
| C=C(C)[C@@H]1CC=C(/C=N/O)CC1 [Perillartine, perillartine] | 26.3 ± 1.1 | 1.5 | 1.35 ± 0.03 |
| O=S(=O)(O)NC1CCCCC1 [Cyclamate, cyclamate] | 2110 ± 55 | – | – |
| C=C1C[C@@]23CC[C@H]4[C@@](C)(CCC[C@@]4(C)C(=O)O[C@@H]4O[C@H](CO)[C@@H](O)[C@H](O[C@@H]5O[C@H](CO)[C@@H](O)[C@H](O)[C@H]5O)[C@H]4O[C@@H]4O[C@H](CO)[C@@H](O)[C@H](O)[C@H]4O)[C@@H]2CC[C@]1(O[C@@H]1O[C@H](CO)[C@@H](O)[C@H](O[C@@H]2O[C@H](CO)[C@@H](O)[C@H](O)[C@H]2O)[C@H]1O[C@@H]1O[C@H](CO)[C@@H](O)[C@H](O)[C@H]1O)C3 [Rebaudioside M, rebaudioside M] | 19.5 ± 0.9 | 1.2 | 0.99 ± 0.02 |
| OC[C@H]1O[C@H](O[C@]2(CCl)O[C@H](CCl)[C@@H](O)[C@@H]2O)[C@H](O)[C@@H](O)[C@H]1Cl [Sucralose] | 80 ± 13 | 0.9 | 0.50 ± 0.03 |
| CC1=CC(=O)NS(=O)(=O)O1 [Acesulfame K, acesulfame K] | 374 ± 11 | 0.5 | 0.24 ± 0.01 |
| brazzein (QDKCKKVYENYPVSKCQLANQCNYDCKLDKHARSGECFYDEKRNLQCICDYCEY; ends and bridges not checked; cysteine pairing not given here; UniProt P56552 1-54, looked up) [sweet-tasting protein obtained by recombinant production using the yeast Pichia pastoris] | – | 1.1 | 1.09 ± 0.01 |
| thaumatin | – | 0.4 | 0.19 ± 0.04 |
| COC(=O)[C@H](Cc1ccccc1)NC(=O)[C@H](CC(=O)O)NCCC(C)(C)C [Neotame] | 0.67 ± 0.16 | 0.8 | 0.53 ± 0.04 |
| C[C@H](CC[C@@H](O[C@@H]1O[C@H](CO[C@@H]2O[C@H](CO)[C@@H](O)[C@H](O)[C@H]2O)[C@@H](O)[C@H](O)[C@H]1O[C@@H]1O[C@H](CO)[C@@H](O)[C@H](O)[C@H]1O)C(C)(C)O)[C@H]1CC[C@@]2(C)[C@@H]3CC=C4[C@@H](CC[C@H](O[C@@H]5O[C@H](CO[C@@H]6O[C@H](CO)[C@@H](O)[C@H](O)[C@H]6O)[C@@H](O)[C@H](O)[C@H]5O)C4(C)C)[C@]3(C)[C@H](O)C[C@]12C [Mogroside V, mogroside V] | 19.9 ± 1.1 | 1.2 | 1.18 ± 0.02 |
| COc1ccc(CCC(=O)c2c(O)cc(O[C@@H]3O[C@H](CO)[C@@H](O)[C@H](O)[C@H]3O[C@@H]3O[C@@H](C)[C@H](O)[C@@H](O)[C@H]3O)cc2O)cc1O [NHDC, neohesperidin dihydrochalcone] | 100 ± 5.1 | 1.3 | 0.81 ± 0.02 |
| B1 | 3.3 | – | – |
